These results are taken from article PMC9340770 (Journal of Medicinal Chemistry, 2022).

In series [1] the target is T1, CCKAR (Homo sapiens, UniProt P32238).
T1 construct: purchased DiscoverX (Eurofins) Safetyscan Panel
The series can be described thus: Safetyscan Calcium Flux. It counts as cell-based. On the technique in general: Calcium assays in cells follow changes in intracellular calcium, usually with a dye or a luminescent sensor.

For series [2], the target named is T2, ADORA2A (Homo sapiens, UniProt P29274).
T2 construct: purchased DiscoverX (Eurofins) Safetyscan Panel
Briefly: Safetyscan Calcium Flux. It counts as cell-based.

Series [3] in a line: in vivo. To be noted: CD-1, mouse, po, 30 mg/kg.
Series [4] deals with T3, HRH1 (Homo sapiens, UniProt P35367).
T3 construct: purchased DiscoverX (Eurofins) Safetyscan Panel
The series can be described thus: Safetyscan Calcium Flux. The format is cell-based.

The target in series [5] is T4, EDNRA (Homo sapiens, UniProt P25101).
T4 construct: purchased DiscoverX (Eurofins) Safetyscan Panel
Briefly: Safetyscan Calcium Flux. It counts as cell-based.

Series [6] in a line: CNS mouse PK study. The format is in vivo, female CD-1 mice. Conditions: female, CD-1, mouse, CSF / free plasma, read-out: CSF:Cp,u (Kp,uu). An excerpt:
Table 10 CNS Mouse PK Profile of MRTX0902 (32) ^a | column: mean free plasma concn (Cp,u, nM); mean brain concn (ng/g); mean CSF concn (nM); CSF:Cp,u (Kp,uu)

Series [7] has as its target T5, CAV1.2 (Homo sapiens, UniProt Q13936).
T5 construct: purchased DiscoverX (Eurofins)
Briefly: Safetyscan Ion Channel. The format is cell-based. Conditions: blocker mode, read-out: RC50 (IC50) CAV1.2 Blocker.

For series [8], the target named is T6, SOS2 (Homo sapiens, UniProt Q07890).
T6 construct: amino acids 558-1047, expressed in E. coli with a N-terminal HIS-tag MW=59.3 kDa; His (N); purchased Accelagen Inc; host or cells: E. coli
Briefly: SOS2 KRAS WT GDP exchange assay. It counts as biochemical. Here is the method:
The plates were incubated overnight at 4 °C on a shaker.
Each plate was washed 3x times […]
for 2 hours (protected from light). The secondary antibody solution as removed and each plate […]
was washed with PBST 3x times. […]
length at 3mm and both 800nm and 700nm filters. The GAPDH normalized scan values for each […]
were then calculated with the Graph pad Prism software.
EGFR selectivity was profiled using Reaction Biology’s radiometric HotSpot kinase assay with human EGFR. Compounds were sent as a powder then suspended as a 10 mM DMSO stock […]
starting at 20 μM. Reactions were carried out at 10 μM ATP.
SOS2 KRAS WT GDP Exchange Assay
The final conditions for the Functional SOS2 Assay are as follows: 50 mM HEPES 7.5, 2nM SOS2, 50nM GTP-CY5, 30nM KRAS, 0.5 nM Tb-SA, 5 mM MgCl2, 1 mM TCEP, 0.2 mg/mL BSA, ~1.0% DMSO. Recombinant human SOS2 polypeptide (Accelagen Inc., corresponding to amino acids 558-1047, expressed in E. coli with a N-terminal HIS-tag MW=59.3 kDa) and Cy5-GTP (Jena Bioscience Inc) were added to an exemplary compound (in a DMSO stock solution) at room temperature for 15 minutes. […] 100 percent of control (POC) is determined by using a DMSO control and 0 POC is determined using a concentration of control […]

In series [9] the target is T7, GR (Homo sapiens, UniProt P04150).
T7 construct: purchased DiscoverX (Eurofins)
Briefly: Safetyscan NHR Protein Interaction. It counts as cell-based.

The nature of series [10]: PK across species (ranges). It counts as in vivo, CD-1 mice, Sprague–Dawley rats, and beagle dogs. To be noted: range across mice, rats, dogs.
The mark [11] stands for this setting: CD-1, Sprague-Dawley, beagle, mouse, rat, dog, in vivo, IV administration.

Each structure is given as a SMILES string.

T4 sequence (P25101 21-427): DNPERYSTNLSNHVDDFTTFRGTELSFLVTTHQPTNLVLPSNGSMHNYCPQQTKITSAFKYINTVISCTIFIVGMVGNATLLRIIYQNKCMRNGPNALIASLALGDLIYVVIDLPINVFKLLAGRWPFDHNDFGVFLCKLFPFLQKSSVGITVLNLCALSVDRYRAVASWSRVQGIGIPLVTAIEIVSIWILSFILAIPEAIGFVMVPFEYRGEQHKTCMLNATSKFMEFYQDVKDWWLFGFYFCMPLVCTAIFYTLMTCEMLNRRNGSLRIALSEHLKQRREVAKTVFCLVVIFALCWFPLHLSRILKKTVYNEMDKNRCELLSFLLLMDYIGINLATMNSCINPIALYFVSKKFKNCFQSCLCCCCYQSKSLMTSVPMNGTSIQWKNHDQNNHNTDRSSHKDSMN
T3 sequence (P35367 whole entry): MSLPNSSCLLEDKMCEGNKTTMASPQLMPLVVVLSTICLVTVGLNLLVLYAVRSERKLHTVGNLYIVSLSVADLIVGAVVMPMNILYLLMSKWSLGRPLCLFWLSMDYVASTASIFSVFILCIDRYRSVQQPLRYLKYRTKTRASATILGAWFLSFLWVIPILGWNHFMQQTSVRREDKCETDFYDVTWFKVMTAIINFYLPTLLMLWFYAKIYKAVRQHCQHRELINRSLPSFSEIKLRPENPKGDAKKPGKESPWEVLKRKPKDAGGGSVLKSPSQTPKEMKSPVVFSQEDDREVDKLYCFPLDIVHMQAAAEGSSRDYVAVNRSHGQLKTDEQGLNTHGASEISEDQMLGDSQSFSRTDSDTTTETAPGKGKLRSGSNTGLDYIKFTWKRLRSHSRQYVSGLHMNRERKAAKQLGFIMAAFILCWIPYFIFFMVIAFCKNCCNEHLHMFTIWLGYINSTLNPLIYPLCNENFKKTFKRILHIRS
T7 sequence (P04150 whole entry): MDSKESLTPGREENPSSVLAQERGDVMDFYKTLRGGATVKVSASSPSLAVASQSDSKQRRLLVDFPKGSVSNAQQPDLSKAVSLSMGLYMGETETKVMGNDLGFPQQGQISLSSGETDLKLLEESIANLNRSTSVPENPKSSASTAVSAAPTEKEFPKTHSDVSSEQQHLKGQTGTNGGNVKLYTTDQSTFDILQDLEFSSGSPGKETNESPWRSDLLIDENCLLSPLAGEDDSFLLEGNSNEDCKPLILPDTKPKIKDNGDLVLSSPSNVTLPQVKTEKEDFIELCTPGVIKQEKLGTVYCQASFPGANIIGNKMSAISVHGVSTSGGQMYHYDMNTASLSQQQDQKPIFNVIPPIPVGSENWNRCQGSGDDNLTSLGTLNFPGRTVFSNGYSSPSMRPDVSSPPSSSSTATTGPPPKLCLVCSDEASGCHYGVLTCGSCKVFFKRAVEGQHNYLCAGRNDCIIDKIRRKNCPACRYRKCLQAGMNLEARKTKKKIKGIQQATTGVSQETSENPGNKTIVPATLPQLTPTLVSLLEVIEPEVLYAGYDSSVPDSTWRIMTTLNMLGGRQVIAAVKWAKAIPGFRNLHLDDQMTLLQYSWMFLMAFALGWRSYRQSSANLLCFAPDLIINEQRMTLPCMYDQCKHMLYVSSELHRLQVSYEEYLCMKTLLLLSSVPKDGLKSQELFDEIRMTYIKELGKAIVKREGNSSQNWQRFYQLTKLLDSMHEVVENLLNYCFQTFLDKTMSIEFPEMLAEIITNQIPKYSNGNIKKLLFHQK
T2 sequence (P29274 whole entry): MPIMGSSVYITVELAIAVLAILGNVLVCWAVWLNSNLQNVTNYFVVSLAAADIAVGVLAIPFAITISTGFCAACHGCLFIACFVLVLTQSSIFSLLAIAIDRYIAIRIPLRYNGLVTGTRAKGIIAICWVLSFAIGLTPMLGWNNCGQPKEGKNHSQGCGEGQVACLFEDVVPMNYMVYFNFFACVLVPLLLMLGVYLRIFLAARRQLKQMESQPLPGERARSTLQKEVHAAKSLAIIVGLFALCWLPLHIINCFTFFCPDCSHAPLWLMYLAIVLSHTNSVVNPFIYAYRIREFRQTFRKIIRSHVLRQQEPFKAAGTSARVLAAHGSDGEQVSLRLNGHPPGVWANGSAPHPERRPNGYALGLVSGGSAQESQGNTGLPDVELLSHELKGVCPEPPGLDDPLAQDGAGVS
T1 sequence (P32238 whole entry): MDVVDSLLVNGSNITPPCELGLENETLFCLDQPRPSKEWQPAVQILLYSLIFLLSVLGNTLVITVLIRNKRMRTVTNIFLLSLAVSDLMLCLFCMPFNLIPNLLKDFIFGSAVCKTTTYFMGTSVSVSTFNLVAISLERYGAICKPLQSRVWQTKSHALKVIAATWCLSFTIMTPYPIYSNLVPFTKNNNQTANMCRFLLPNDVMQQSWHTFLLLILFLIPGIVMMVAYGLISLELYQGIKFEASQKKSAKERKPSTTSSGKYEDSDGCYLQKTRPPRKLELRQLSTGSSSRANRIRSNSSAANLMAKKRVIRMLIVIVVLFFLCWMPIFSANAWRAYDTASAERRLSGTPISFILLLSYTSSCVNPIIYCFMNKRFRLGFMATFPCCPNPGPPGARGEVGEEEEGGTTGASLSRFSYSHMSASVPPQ
T6 sequence (Q07890 558-1047): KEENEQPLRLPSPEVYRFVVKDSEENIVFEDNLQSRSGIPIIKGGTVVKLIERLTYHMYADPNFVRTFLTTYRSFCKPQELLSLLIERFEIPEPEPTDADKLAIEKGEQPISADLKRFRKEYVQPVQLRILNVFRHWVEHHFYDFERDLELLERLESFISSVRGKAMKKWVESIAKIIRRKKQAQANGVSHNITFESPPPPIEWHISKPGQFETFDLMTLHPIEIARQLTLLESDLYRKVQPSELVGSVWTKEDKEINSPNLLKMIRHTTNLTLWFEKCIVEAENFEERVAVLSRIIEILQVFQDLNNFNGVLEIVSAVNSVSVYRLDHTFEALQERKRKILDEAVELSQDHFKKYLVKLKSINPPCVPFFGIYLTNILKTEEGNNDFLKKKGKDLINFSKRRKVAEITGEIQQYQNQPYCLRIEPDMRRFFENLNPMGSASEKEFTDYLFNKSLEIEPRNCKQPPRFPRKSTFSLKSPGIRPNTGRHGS

On to `Cc1c(C#N)cccc1[C@@H](C)Nc1nnc(C)c2cnc(N3CCOCC3)cc12` [Compound 32, (R)-2-Methyl-3-(1-((4-methyl-7-morpholinopyrido[3,4-d]pyridazin-1-yl)amino)ethyl)benzonitrile], for which the EC50 (commonly the concentration giving half of the maximal effect) is greater than 10 µM in [1] (agonist mode, read-out: RC50 (EC50) CCKAR Agonist); greater than 10 µM in series [2] (agonist mode, read-out: RC50 (EC50) ADORA2A Agonist); greater than 10 µM in series [4] (agonist mode, read-out: RC50 (EC50) HRH1 Agonist); greater than 10 µM in series [5] (agonist mode, read-out: RC50 (EC50) EDNRA Agonist); greater than 10 µM in series [9] (agonist mode, read-out: RC50 (EC50) GR Agonist). Besides, the IC50 (as a rule, the concentration needed to halve the response being measured) is greater than 10 µM in series [1] (antagonist mode, read-out: RC50 (IC50) CCKAR Antagonist); greater than 10 µM in series [2] (antagonist mode, read-out: RC50 (IC50) ADORA2A Antagonist); greater than 10 µM in [4] (antagonist mode, read-out: RC50 (IC50) HRH1 Antagonist); greater than 10 µM in series [5] (antagonist mode, read-out: RC50 (IC50) EDNRA Antagonist); greater than 10 µM in series [7]; greater than 10 µM in series [8]. For the same compound, the IC50 in series [9] (antagonist mode, read-out: RC50 (IC50) GR Antagonist) is greater than 10 µM. For the same compound, the figures for the bioavailability in [3] and in [10] (PO suspension in 0.5% MC (4000 cps)/0.2% Tween80 in water) were 69% and 38–83 %F, respectively. Also, in [6] (1 h after PO 100 mg/kg single dose), the Kp uu at 1 h stood at 1.56. The Kp uu at 8 h in series [6] (8 h after PO 100 mg/kg single dose) stood at 1.03. Moreover, the clearance (as a rule, the volume of plasma or blood freed of the substance per unit of time) in [10] (setting [11]) lay within 0.264 to 0.876 L/h/kg. The half-life – broadly, how long it takes for the measured level to halve – in [10] (setting [11]) fell in the range of 37.2 to 78 min. The Vd in series [10] (CD-1, Sprague-Dawley, beagle, mouse, rat, dog, in vivo, IV administration, read-out: volume of distribution) fell in the range of 0.28 to 0.48 L/kg.
